From ChEMBL document CHEMBL3885881, “DrugMatrix”

Organism: Rattus norvegicus
Assay: DrugMatrix - Regimen: Daily Repeat
Type: toxicity, organism-based, Sprague-Dawley
Design: regimen Daily Repeat, gender Male, age 6-8 weeks
Conditions: in vivo, iv, vehicle 100 % SALINE; for ABSOLUTE BASOPHIL / ABSOLUTE EOSINOPHIL / ABSOLUTE LYMPHOCYTE / ABSOLUTE MONOCYTE / ABSOLUTE SEGMENTED NEUTROPHIL / BASOPHIL / EOSINOPHIL / ERYTHROCYTE COUNT / HEMATOCRIT / HEMOGLOBIN / LEUKOCYTE COUNT / LYMPHOCYTE / MEAN CORPUSCULAR HEMOGLOBIN / MEAN CORPUSCULAR HEMOGLOBIN CONCENTRATION / MEAN CORPUSCULAR VOLUME / MONOCYTE / NEUTROPHIL / NUCLEATED RED BLOOD CELLS / PLATELET COUNT: tissue Blood; for ALANINE AMINOTRANSFERASE / ALBUMIN / ALKALINE PHOSPHATASE / ASPARTATE AMINOTRANSFERASE / BLOOD UREA NITROGEN / CARBON DIOXIDE / CHLORIDE / CHOLESTEROL / CREATINE PHOSPHOKINASE / CREATININE / GLUCOSE / LACTATE DEHYDROGENASE / LIPASE / PHOSPHORUS / POTASSIUM / SODIUM / TOTAL BILIRUBIN / TOTAL PROTEIN / URIC ACID: tissue Plasma
[1] = 0 mg/kg, 72 h, dose level Control, time 3 day
[2] = 0 mg/kg, 120 h, dose level Control, time 5 day
[3] = 12 mg/kg, 72 h, dose level High, time 3 day

Structure (SMILES): Cc1c(N)nc([C@H](CC(N)=O)NC[C@H](N)C(N)=O)nc1C(=O)N[C@H](C(=O)N[C@H](C)[C@@H](O)[C@H](C)C(=O)N[C@H](C(=O)NCCc1nc(-c2nc(C(=O)NCCC[S+](C)C)cs2)cs1)[C@@H](C)O)[C@@H](O[C@@H]1O[C@@H](CO)[C@@H](O)[C@H](O)[C@@H]1O[C@H]1O[C@H](CO)[C@@H](O)[C@H](OC(N)=O)[C@@H]1O)c1c[nH]cn1.[Br-] [BLEOMYCIN A2]
- ABSOLUTE BASOPHIL [1]: 0 CELLS/uL
- ABSOLUTE EOSINOPHIL [1]: 33.67 CELLS/uL
- ABSOLUTE LYMPHOCYTE [1]: 12123.5 CELLS/uL
- ABSOLUTE MONOCYTE [1]: 243.5 CELLS/uL
- ABSOLUTE SEGMENTED NEUTROPHIL [1]: 1282.67 CELLS/uL
- BASOPHIL [1]: 0%
- EOSINOPHIL [1]: 0.33%
- ERYTHROCYTE COUNT [1]: 5.18 x10E6/uL
- HEMATOCRIT [1]: 32.63%
- HEMOGLOBIN [1]: 12.87 G/DL
- LEUKOCYTE COUNT [1]: 13.68 x10E3/uL
- LYMPHOCYTE [1]: 88.67%
- MEAN CORPUSCULAR HEMOGLOBIN [1]: 24.98 pg
- MEAN CORPUSCULAR HEMOGLOBIN CONCENTRATION [1]: 39.48 G/DL
- MEAN CORPUSCULAR VOLUME [1]: 63.23 fL
- MONOCYTE [1]: 1.83%
- NEUTROPHIL [1]: 9.17%
- NUCLEATED RED BLOOD CELLS [1]: 0.17 /100WBC
- PLATELET COUNT [1]: 1114.5 x10E3/uL
- ALANINE AMINOTRANSFERASE [1]: 46.17 u/L
- ALBUMIN [1]: 4.15 G/DL
- ALKALINE PHOSPHATASE [1]: 374.67 u/L
- ASPARTATE AMINOTRANSFERASE [1]: 89.33 u/L
- BLOOD UREA NITROGEN [1]: 14.83 mg/dL
- CARBON DIOXIDE [1]: 25.67 mmol/L
- CHLORIDE [1]: 101.17 MEQ/L
- CHOLESTEROL [1]: 63.5 mg/dL
- CREATINE PHOSPHOKINASE [1]: 494.67 u/L
- CREATININE [1]: 0.17 mg/dL
- GLUCOSE [1]: 163 mg/dL
- LACTATE DEHYDROGENASE [1]: 269.33 u/L
- LIPASE [1]: 10.67 u/L
- PHOSPHORUS [1]: 11.27 mg/dL
- POTASSIUM [1]: 5.85 MEQ/L
- SODIUM [1]: 141.68 MEQ/L
- TOTAL BILIRUBIN [1]: 0.18 mg/dL
- TOTAL PROTEIN [1]: 5.87 G/DL
- URIC ACID [1]: 1.28 mg/dL
- ABSOLUTE BASOPHIL [2]: 0 CELLS/uL
- ABSOLUTE EOSINOPHIL [2]: 24.67 CELLS/uL
- ABSOLUTE LYMPHOCYTE [2]: 11832.83 CELLS/uL
- ABSOLUTE MONOCYTE [2]: 279.67 CELLS/uL
- ABSOLUTE SEGMENTED NEUTROPHIL [2]: 1446.17 CELLS/uL
- BASOPHIL [2]: 0%
- EOSINOPHIL [2]: 0.17%
- ERYTHROCYTE COUNT [2]: 5.61 x10E6/uL
- HEMATOCRIT [2]: 35.02%
- HEMOGLOBIN [2]: 13.82 G/DL
- LEUKOCYTE COUNT [2]: 13.58 x10E3/uL
- LYMPHOCYTE [2]: 87.67%
- MEAN CORPUSCULAR HEMOGLOBIN [2]: 24.68 pg
- MEAN CORPUSCULAR HEMOGLOBIN CONCENTRATION [2]: 39.5 G/DL
- MEAN CORPUSCULAR VOLUME [2]: 62.42 fL
- MONOCYTE [2]: 2%
- NEUTROPHIL [2]: 10.17%
- NUCLEATED RED BLOOD CELLS [2]: 0 /100WBC
- PLATELET COUNT [2]: 1178.17 x10E3/uL
- ALANINE AMINOTRANSFERASE [2]: 52.83 u/L
- ALBUMIN [2]: 4.12 G/DL
- ALKALINE PHOSPHATASE [2]: 370 u/L
- ASPARTATE AMINOTRANSFERASE [2]: 100.5 u/L
- BLOOD UREA NITROGEN [2]: 15.17 mg/dL
- CARBON DIOXIDE [2]: 28.83 mmol/L
- CHLORIDE [2]: 101 MEQ/L
- CHOLESTEROL [2]: 69.5 mg/dL
- CREATINE PHOSPHOKINASE [2]: 488.67 u/L
- CREATININE [2]: 0.23 mg/dL
- GLUCOSE [2]: 165 mg/dL
- LACTATE DEHYDROGENASE [2]: 502.17 u/L
- LIPASE [2]: 11 u/L
- PHOSPHORUS [2]: 11.7 mg/dL
- POTASSIUM [2]: 5.85 MEQ/L
- SODIUM [2]: 142.45 MEQ/L
- TOTAL BILIRUBIN [2]: 0.18 mg/dL
- TOTAL PROTEIN [2]: 5.85 G/DL
- URIC ACID [2]: 1.43 mg/dL
- ABSOLUTE BASOPHIL [3]: 0 CELLS/uL
- ABSOLUTE EOSINOPHIL [3]: 0 CELLS/uL
- ABSOLUTE LYMPHOCYTE [3]: 10537 CELLS/uL
- ABSOLUTE MONOCYTE [3]: 346.67 CELLS/uL
- ABSOLUTE SEGMENTED NEUTROPHIL [3]: 2083 CELLS/uL
- BASOPHIL [3]: 0%
- EOSINOPHIL [3]: 0%
- ERYTHROCYTE COUNT [3]: 6.18 x10E6/uL
- HEMATOCRIT [3]: 38.57%
- HEMOGLOBIN [3]: 15.13 G/DL
- LEUKOCYTE COUNT [3]: 12.97 x10E3/uL
- LYMPHOCYTE [3]: 81.67%
- MEAN CORPUSCULAR HEMOGLOBIN [3]: 24.5 pg
- MEAN CORPUSCULAR HEMOGLOBIN CONCENTRATION [3]: 39.23 G/DL
- MEAN CORPUSCULAR VOLUME [3]: 62.37 fL
- MONOCYTE [3]: 2.67%
- NEUTROPHIL [3]: 15.67%
- NUCLEATED RED BLOOD CELLS [3]: 0 /100WBC
- PLATELET COUNT [3]: 1055.67 x10E3/uL
- ALANINE AMINOTRANSFERASE [3]: 38 u/L
- ALBUMIN [3]: 3.8 G/DL
- ALKALINE PHOSPHATASE [3]: 233.67 u/L
- ASPARTATE AMINOTRANSFERASE [3]: 110 u/L
- BLOOD UREA NITROGEN [3]: 10.33 mg/dL
- CARBON DIOXIDE [3]: 27.67 mmol/L
- CHLORIDE [3]: 100.33 MEQ/L
- CHOLESTEROL [3]: 56.33 mg/dL
- CREATINE PHOSPHOKINASE [3]: 923.67 u/L
- CREATININE [3]: 0.12 mg/dL
- GLUCOSE [3]: 136.67 mg/dL
- LACTATE DEHYDROGENASE [3]: 439.67 u/L
- LIPASE [3]: 9.67 u/L
- PHOSPHORUS [3]: 10.5 mg/dL
- POTASSIUM [3]: 5.86 MEQ/L
- SODIUM [3]: 140.77 MEQ/L
- TOTAL BILIRUBIN [3]: 0.13 mg/dL
- TOTAL PROTEIN [3]: 5.47 G/DL
- URIC ACID [3]: 1.3 mg/dL
